Seven molecules from patent US20130337095A1, “ANTIMICROBIAL COMPOSITION AND ITS METHOD OF USE” (Waikatolink Limited, priority 2012, published 2013) can be followed below.

Format in all cases: cell-based
In test [1] the test system is Streptococcus agalactiae (NZRM 2721, ATCC 27956). Briefly: MIC assay against S. agalactiae. Here is the method:
(§1) To exemplify the concept of the present invention, the in vitro activity of three novel plant extracts melaleuca oil, manuka oil, and black walnut hull extract in a specific ratio described herein, were tested against an isolate of various microbes (methicillin-sensitive S. aureus, methicillin-resistant S. aureus, S. pyogenes, S. agalactiae, S. uberis, E. coli, C. albicans) from a reference library.
(§2) MIC90 refers to the minimum inhibitory concentration required to inhibit the growth of 90% of the organisms. The methods and materials used for this preliminary study are outlined in Example 5.
(§3) The test formulation, comprising three novel plant extracts melaleuca oil, manuka oil, and black walnut hull extract in a specific ratio described herein, was serially diluted to give 11 different concentrations. The diluted samples were then incubated with individual microbes, and the MICs were determined as the lowest concentration of test substance that inhibited the growth of the microbe as determined by measurement of OD650 nm using a VersaMax 96 well plate reader. […]

In another test the test system is Streptococcus pyogenes. Briefly: MIC assay against S. pyogenes. Here is the method: as §1, §2, §3
Test [2] relates to Streptococcus uberis (NZRM 2266 NCTC 3858). Briefly: MIC assay against S. uberis. Here is the method: as §1, §2, §3
Test [3] has as its system Staphylococcus aureus (NZCC 4410, ATCC 33591, Strain 328 methicillin resistant). Briefly: MIC assay against methicillin-resistant S. aureus. Here is the method:
as §1, §2, §3

Test [4] relates to Staphylococcus aureus (NZCC865, ATCC12598). Briefly: MIC assay against S. aureus (methicillin-sensitive). Here is the method:
as §1, §2, §3

The test system of test [5] is Pseudomonas aeruginosa (ESR strain 981, NTC 10662, ATCC 25668). Briefly: MIC assay, in-vitro anti P. aeruginosa activity. Particulars: antibiotics; for MIC90: Pseudomonas aeruginosa, ATCC25668. On the procedure: To exemplify the concept of the present invention, the in vitro activity of three novel plant extracts melaleuca oil, manuka oil, and black walnut hull extract, and blends of these extracts, were tested against an isolate of Pseudomonas aeruginosa from a reference library. MIC90 refers to the minimum inhibitory concentration required to inhibit the growth of 90% of the organisms. The methods and materials used for this preliminary study are outlined in Example 3.
• The methodology used in this study is based on standard MIC assay methods referenced in numerous publications. • Each of the extracts was serially diluted to give 11 different concentrations. The diluted samples were then incubated with the Pseudomonas aeruginosa (ESR strain 981, NTC 10662, ATCC 25668, DSM 46358, NC/MB 13063). The MICs were determined as the lowest concentration of each extract that inhibits growth of the bacteria as determined by measurement of OD650 nm using a VersaMax 96 well plate reader.
• Tryptic soy agar base (Bacto Difco Media Cat. No. 236940, Becton Dickinson and company). • Mueller II broth cation-adjusted (BBL media Cat. No. 212332, Becton Dickinson and company).
• a) The isolate of Pseudomonas aeruginosa was streaked from −70° C. cryostocks onto Tryptic Soy Agar (TSA) plates and incubated for 24-48 hrs at 37° C. until visible single colonies developed. • b) One colony was picked, using a sterile inoculating loop and used to inoculate sterile 10 ml universals of Mueller II Cation-adjusted broth. Inoculated broths were incubated for approx 18 hrs at 37° C. • c) Following overnight incubation the culture was diluted with fresh sterile Mueller II cation adjusted broth to an OD650 nm of approximately 0.1, equivalent to approx […] (cell number and OD650 nm was determined and optimised prior to commencement of MIC testing). This is the seed broth which was used to inoculate the test wells in each plate. The seed culture was held at 4° C. until required for plating. • d) Stock solutions of each test extract were prepared so that their concentration is 64 μg/ml in the appropriate formulation in Mueller II cation adjusted broth. Once the extract was added to the broth it was mixed using a vortex mixer for approx 30 sec to ensure homogenous dispersion throughout the broth solution. • e) A 96 well microtitre plate was then set up as follows: To all wells, except the first in every row, 100 μl of sterile Mueller II cation adjusted broth was added. The plate was prepared up to 24 hrs in advance and held at −20° C. until ready for use. • f) If the plate was prepared in advance, it needed to be thawed at room temperature. […]

In test [6] the test system is Escherichia coli (NZRN 2220, ATCC 291214). Briefly: MIC assay against E. coli. Here is the method:
as §1, §2, §3

≈ marks a conversion by molar mass, not a printed value. Structures can show the parent of a compound that is named as a salt. Where two headings read alike, the source gives them in different places.

What is called MIC90 is the lowest concentration that inhibits either 90% of growth or 90% of the strains tested, depending on the study.

As to `CC1=C(C(=O)O)N2C(=O)[C@@H](NC(=O)[C@H](N)c3ccccc3)[C@H]2SC1` [Cephalexin, Cephalexin hydrate], the “MIC antibiotic reference 16 h” value in test [1] (16 h) stood at 0.098 µg/mL. Besides, the “MIC antibiotic reference 24 h” value in test [1] (24 h) amounted to 0.098 µg/mL.

For the molecule `CC1(C)S[C@@H]2[C@H](NC(=O)Cc3ccccc3)C(=O)N2[C@H]1C(=O)O` [Penicillin, Penicillin G sodium salt], the “MIC antibiotic reference 16 h” value (with Streptococcus pyogenes (16 h); in test [2] (16 h)) was 0.049 µg/mL in each case. Besides, the “MIC antibiotic reference 24 h” value (in the test with Streptococcus pyogenes (24 h); in test [2] (24 h)) was 0.049 µg/mL each time.

As to `CCN1CCN(c2cc3c(cc2F)c(=O)c(C(=O)O)cn3C2CC2)CC1` [Enfrofloxacin], the “MIC antibiotic reference 24 h” value in test [3] (24 h) stood at 0.05 µg/mL (≈ 0.139 µM).

Turning to `C[C@H]1c2cccc(O)c2C(=O)C2=C(O)[C@]3(O)C(=O)C(C(N)=O)=C(O)[C@@H](N(C)C)[C@@H]3[C@@H](O)[C@@H]21` [Doxycycline], the “MIC antibiotic reference 16 h” value in test [3] (16 h) worked out at 0.05 µg/mL (≈ 0.113 µM).

As to `[H]/N=C(/N)N[C@H]1[C@H](O)[C@@H](O)[C@H](O[C@@H]2O[C@@H](C)[C@](O)(C=O)[C@H]2O[C@@H]2O[C@@H](CO)[C@H](O)[C@@H](O)[C@@H]2NC)[C@@H](N/C(N)=N\[H])[C@@H]1O` [Streptomycin], the “MIC antibiotic reference 16 h” value in test [4] was 0.003 µg/mL (≈ 0.00516 µM).

With `O=C(O)c1cn(C2CC2)c2cc(N3CCNCC3)c(F)cc2c1=O` [G. ciprofloxacin, ciprofloxacin], the MIC90 in test [5] (18 h, read-out: MIC90 18 h) worked out at 0.049 µg/mL (≈ 0.148 µM); in test [5] (24 h, read-out: MIC90 24 h) it was 0.098 µg/mL (≈ 0.296 µM). Further, the “MIC antibiotic reference 16 h” value in test [6] (16 h) turned out to be 0.049 µg/mL (≈ 0.148 µM). Besides, in test [6] (24 h), the “MIC antibiotic reference 24 h” value is 0.049 µg/mL (≈ 0.148 µM).

gentamicin [F. gentamicin]: the “MIC90 18 h” value in test [5] (18 h) is 0.098 µg/mL. The “MIC90 24 h” value in test [5] (24 h) stood at 3.125 µg/mL.
